According to US7211596B2, “Stable high-concentration injection containing pyrazolone derivative” (Mitsubishi Pharma Corporation, priority 2001, dated 2007):
≈ marks a conversion by molar mass, not a printed value.

Assay: Test 1: solubility of Edaravone in various aqueous solubilizer solutions (saturated solution at 4° C., HPLC)
Type: physicochemical
Settings: aqueous with cosolvent or surfactant or cyclodextrin, thermodynamic from solid
Method: Water for injection (5 mL) was added to 5 mL of each of ethanol, propylene glycol, polyethylene glycol 400 and N,N-dimethylacetamide widely used as a solubilizer for an intravenous injection, followed by stirring. Edaravone was added to the resulting aqueous solubilizer solution and the mixture was stirred in a thermostat maintained at 4° C. by using a stirrer at a fixed but not bubbling speed all day and night. After completion of the stirring, a portion of Edaravone which had remained undissolved was checked visually to confirm that each solution thus obtained was a saturated aqueous solution of Edaravone. Then, the solution was quickly filtered through a membrane filter (pore size: 0.45 μm) kept at 4° C. and the amount of Edaravone contained in the filtrate was measured by HPLC method as explained below. Further, the maximum amount of each of the solubilizers used a day as an injection for intravenous administration was also shown (Iyakuhin-tenkabutu-jiten 2000 (published by Yakuji-nippou-sha), p. 127, 264 and 229 to 230. The maximum amount of ethanol was calculated based on the amount used for NIMOTOP IV (registered trademark, Bayer Co.)) and its solubilizing effect on Edaravone was calculated as a numerical term.
Measuring Method by HPLC and its Conditions:
By liquid chromatography (LC) using ethyl paraaminobenzoate as an internal standard substance, a peak area ratio of Edaravone to the internal standard substance was found and based on it, the concentration of Edaravone was determined. • Detector: Ultraviolet spectrophotometer (wavelength measured: 240 nm) • Column: A stainless tube having inside diameter of about 4 mm and length of about 15 cm and filled with octadecylsilylated silica-gel 5 μm was used at a fixed temperature near 50° C. • Mobile phase: A (3:1) mixed solution of 10 mM aqueous acetic acid solution and methanol, adjusted to pH 5.5 with aqueous ammonia • Flow rate: adjusted so that the retention time of Edaravone would be about 8 minutes.

Compound: CC1=NN(c2ccccc2)C(=O)C1 [Edaravone, 3-Methyl-l-phenyl-2-pyrazolin-5-one]
- solubility (50 v/v % N,N-dimethylacetamide in water, in 50 v/v % N,N-Dimethylacetamide, 4° C.): 20 mg/mL (≈ 115 mM)
- solubility (50 v/v % ethanol in water, in 50 v/v % Ethanol, 4° C.): 10 mg/mL (≈ 57.4 mM)
- solubility (50 v/v % polyethylene glycol 400 in water, in 50 v/v % Polyethylene glycol 400, 4° C.): 13 mg/mL (≈ 74.6 mM)
- solubility (50 v/v % propylene glycol in water, in 50 v/v % Propylene glycol, 4° C.): 6 mg/mL (≈ 34.4 mM)
